By EC50 is commonly meant the concentration needed to bring the measured effect to its halfway point.

This note sets out measurements from patent US20240336608A1, “IL4I1 INHIBITORS AND METHODS OF USE” (Merck Sharp & Dohme LLC, priority 2023, published 2024).

SMILES strings stand for the structures.

The target of the experiment is T1, recombinant IL4I1 (Homo sapiens, UniProt Q96RQ9).
T1 construct: purchased R&D Systems 5684-AO-020
T1 sequence (Q96RQ9 22-567): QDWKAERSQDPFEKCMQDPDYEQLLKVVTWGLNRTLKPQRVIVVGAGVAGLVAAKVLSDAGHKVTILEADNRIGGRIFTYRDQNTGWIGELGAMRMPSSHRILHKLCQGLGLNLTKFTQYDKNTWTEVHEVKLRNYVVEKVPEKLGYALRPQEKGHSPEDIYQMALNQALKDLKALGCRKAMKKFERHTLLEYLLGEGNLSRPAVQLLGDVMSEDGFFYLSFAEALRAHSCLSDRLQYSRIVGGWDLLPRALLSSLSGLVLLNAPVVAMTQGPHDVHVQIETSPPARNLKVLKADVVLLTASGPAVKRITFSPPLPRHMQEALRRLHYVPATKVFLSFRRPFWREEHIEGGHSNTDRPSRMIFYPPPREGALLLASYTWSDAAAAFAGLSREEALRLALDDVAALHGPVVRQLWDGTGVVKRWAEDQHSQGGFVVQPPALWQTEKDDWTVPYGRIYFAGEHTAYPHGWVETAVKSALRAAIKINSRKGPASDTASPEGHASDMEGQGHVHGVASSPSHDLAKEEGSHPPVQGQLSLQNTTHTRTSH
Put plainly: IL4I1 Enzymatic Assay (Amplex Red/HRP coupled detection of H2O2, fluorescence). It is filed as biochemical. The note with it: 1 nM recombinant IL4I1; four-hour pre-incubation with compound; 1 mM each Phe, Tyr, Trp; ten-point titration. As for the experimental part: Interleukin 4 inducible protein 1 (IL4I1) is an L-amino oxidase that catalyzes the oxidation of aromatic residues (Phe, Trp and Tyr): L-amino acid+H2O+O2→2-oxo acid+NH3+H2O2. Equal molar of H2O2 and the corresponding alpha-ketoacid are produced when IL4I1 and substrate are added. In this assay, the hydrogen peroxide generated by IL4I1 is then detected through a coupled reaction with Amplex Red (10-acetyl-3,7-dihydroxyphenoxazine) and […] (HRP) to produce Resorufin product that could be detected in the form of fluorescence signals. The assessment of the inhibitory effect of small molecules (EC50) on IL4I1 is measured by the effectiveness of the compounds to inhibit the production of H202.
Using this assay, the potency (EC50) of each compound was determined from a ten-point (1:3 serial dilution) titration curve using the following outlined procedure. To each well of a black flat-bottom Greiner (Cat #781076) 384 well-plate, 125 nL of compound (0.5% DMSO in final assay volume of 25 μL) was dispensed, followed by the addition of 12.5 μL of 1× assay buffer (50 mM Hepes 7.0 and 0.005% Tween20 (Sigma, Cat #P8341; low peroxide grade)) containing 2 nM of recombinant IL4I1 (R&D Systems, Cat #5684-AO-020). Plates were placed in an ambient temperature humidified chamber for a four-hour pre-incubation with compound. Subsequently, each reaction was initiated by the addition of 12.5 μL 1× assay buffer containing 2 mM of each aromatic amino acids (Phe/Tyr/Trp), 0.1 mM Amplex Red and 2 U/mL of HRP. The final reaction in each well of 25 μL consists of 1 nM of IL4I1, 1 mM of each residue (Phe, Tyr and Trp), 0.05 mM Amplex Red and 1 U/mL of HRP. It should be noted that the concentrations of Amplex Red and HRP used here are in excess such that the conversion of H2O2 to Resorufin product occurs instantaneously and non-rate limiting. Reactions were allowed to proceed for 120 minutes followed by fluorescence readout on a Spectramax with the following set parameters: 544 nm excitation/590 nm emission, 570 nm cutoff (EnVision is an alternative reader). Dose-response curves were generated by plotting percent effect (% inhibition; Y-axis) vs. Log10 compound concentrations (X-axis). EC50 values were calculated using a non-linear regression, four-parameters sigmoidal dose-response model and are shown in Table 16.
Turning to `CC(C#N)n1cc(C(=O)NCc2cc(-c3ccncc3)on2)nn1` (single isomer, unassigned) [Example 276, 1-(1-cyanoethyl)-N-((5-(pyridin-4-yl)isoxazol-3-yl)methyl)-1H-1,2,3-triazole-4-carboxamide], the EC50 came to 113 nM.

`CC(C#N)n1cc(C(=O)NCc2cc(-c3ccncc3)no2)nn1` (single isomer, unassigned) [Example 285, 1-(1-cyanoethyl)-N-((3-(pyridin-4-yl)isoxazol-5-yl)methyl)-1H-1,2,3-triazole-4-carboxamide]: the EC50 turned out to be 184 nM.

With `CC(C#N)n1cc(C(=O)NCc2cc(-c3ccncc3)no2)nn1` (single isomer, unassigned) [Example 286, 1-(1-cyanoethyl)-N-((3-(pyridin-4-yl)isoxazol-5-yl)methyl)-1H-1,2,3-triazole-4-carboxamide], the half-maximal effective concentration (EC50) was found to be 72 nM.

As to `CC(C(N)=O)n1cc(C(=O)NCc2nnc(-c3ccccc3)s2)nn1` (single isomer, unassigned) [Example 318, 1-(1-amino-1-oxopropan-2-yl)-N-((5-phenyl-1,3,4-thiadiazol-2-yl)methyl)-1H-1,2,3-triazole-4-carboxamide], the half-maximal effective concentration (EC50) is 209 nM.

For the compound `CC(C(N)=O)n1cc(C(=O)NCc2nnc(-c3ccccc3)s2)nn1` (single isomer, unassigned) [Example 319, 1-(1-amino-1-oxopropan-2-yl)-N-((5-phenyl-1,3,4-thiadiazol-2-yl)methyl)-1H-1,2,3-triazole-4-carboxamide], the half-maximal effective concentration (EC50) was 8 nM.

With `CC(O)c1cc(C(=O)NCc2nnc(-c3ccccc3)s2)on1` (single isomer, unassigned) [Example 329, 3-(1-hydroxyethyl)-N-((5-phenyl-1,3,4-thiadiazol-2-yl)methyl)isoxazole-5-carboxamide], the EC50 was 149 nM.

In the case of `CC(O)c1cc(C(=O)NCc2nnc(-c3ccccc3)s2)on1` (single isomer, unassigned) [Example 330, 3-(1-hydroxyethyl)-N-((5-phenyl-1,3,4-thiadiazol-2-yl)methyl)isoxazole-5-carboxamide], the EC50 is 69 nM.

`Cc1ccc(-n2cc(C(=O)NCc3ccc(-n4nccn4)nn3)nn2)c(C)n1` (single isomer, unassigned) [Example 344, N-((6-(2H-1,2,3-triazol-2-yl)pyridazin-3-yl)methyl)-1-(2,6-dimethylpyridin-3-yl)-1H-1,2,3-triazole-4-carboxamide]: the 50% effective concentration (EC50) was 67 nM.

In the case of `Cc1ccc(-n2cc(C(=O)NCc3ccc(-n4ccnn4)nn3)nn2)c(C)n1` (single isomer, unassigned) [Example 345, N-((6-(1H-1,2,3-triazol-1-yl)pyridazin-3-yl)methyl)-1-(2,6-dimethylpyridin-3-yl)-1H-1,2,3-triazole-4-carboxamide], the half-maximal effective concentration (EC50) amounted to 175 nM.

On to `CC(NC(=O)c1cn(CC(F)F)nn1)c1ccc(-c2ccccc2)nn1` (single isomer, unassigned) [Example 348, 1-(2,2-difluoroethyl)-N-(1-(6-phenylpyridazin-3-yl)ethyl)-1H-1,2,3-triazole-4-carboxamide], for which the EC50 amounted to 880 nM.

With `CC(NC(=O)c1cn(CC(F)F)nn1)c1ccc(-c2ccccc2)nn1` (single isomer, unassigned) [Example 349, 1-(2,2-difluoroethyl)-N-(1-(6-phenylpyridazin-3-yl)ethyl)-1H-1,2,3-triazole-4-carboxamide], the concentration giving a half-maximal response (EC50) was 14 nM.

As for `O=C(NCc1nnc(-c2ccccc2)s1)c1cn([C@@H]2COC[C@H]2CO)nn1` (stereo in doubt) [Example 147, 1-[(3S,4R)-4-(hydroxymethyl)oxolan-3-yl]-N-[(5-phenyl-1,3,4-thiadiazol-2-yl)methyl]-1H-1,2,3-triazole-4-carboxamide], the EC50 stood at 325 nM.

As for `Cc1ccc(-n2cc(C(=O)NCc3nnc(-c4ccccc4)s3)nn2)c(C)n1` [Example 1, 1-(2,6-dimethylpyridin-3-yl)-N-((5-phenyl-1,3,4-thiadiazol-2-yl)methyl)-1H-1,2,3-triazole-4-carboxamide], the concentration giving a half-maximal response (EC50) was found to be 15 nM.

With `CC(C)c1cc(C(=O)NCc2nnc(-c3ccccc3)s2)n[nH]1` [Example 2, 5-isopropyl-N-[(5-phenyl-1,3,4-thiadiazol-2-yl)methyl]-1H-pyrazole-3-carboxamide], the EC50 is 197 nM.

On to `CC(O)c1cc(C(=O)NCc2nnc(-c3ccccc3)s2)no1` (stereo not drawn) [Example 3, 5-(1-hydroxyethyl)-N-[(5-phenyl-1,3,4-thiadiazol-2-yl)methyl]isoxazole-3-carboxamide], for which the concentration giving a half-maximal response (EC50) was 9 nM.

Turning to `O=C(NCc1nnc(-c2ccccc2)s1)c1cc(CO)n[nH]1` [Example 4, 3-(hydroxymethyl)-N-((5-phenyl-1,3,4-thiadiazol-2-yl)methyl)-1H-pyrazole-5-carboxamide], the concentration giving a half-maximal response (EC50) is 69 nM.

On to `O=C(NCc1nnc(-c2ccccc2)s1)c1cn([C@H]2CO[C@H]3[C@@H]2OC[C@H]3O)nn1` [Example 5, 1-[(3S,3aR,6R,6aR)-6-hydroxy-2,3,3a,5,6,6a-hexahydrofuro[3,2-b]furan-3-yl]-N-[(5-phenyl-1,3,4-thiadiazol-2-yl)methyl]triazole-4-carboxamide], for which the concentration for a half-maximal effect (EC50) turned out to be 164 nM.

In the case of `O=C(NCc1nnc(-c2ccccc2)s1)c1cc2c(s1)CCC2` [Example 6, N-[(5-phenyl-1,3,4-thiadiazol-2-yl)methyl]-5,6-dihydro-4H-cyclopenta[b]thiophene-2-carboxamide], the half-maximal effective concentration (EC50) amounted to 62 nM.

In the case of `CC(C)Cc1cc(C(=O)NCc2nnc(-c3ccccc3)s2)no1` [Example 7, 5-isobutyl-N-[(5-phenyl-1,3,4-thiadiazol-2-yl)methyl]isoxazole-3-carboxamide], the 50% effective concentration (EC50) worked out at 8 nM.

Turning to `CCOc1ccsc1C(=O)NCc1nnc(-c2ccccc2)s1` [Example 8, 3-ethoxy-N-[(5-phenyl-1,3,4-thiadiazol-2-yl)methyl]thiophene-2-carboxamide], the 50% effective concentration (EC50) was 3 nM.

Turning to `CC(C)(C)c1cc(C(=O)NCc2nnc(-c3ccccc3)s2)[nH]n1` [Example 9, 3-(tert-butyl)-N-((5-phenyl-1,3,4-thiadiazol-2-yl)methyl)-1H-pyrazole-5-carboxamide], the EC50 is 480 nM.

In the case of `Cc1csc(C(=O)NCc2nnc(-c3ccccc3)s2)c1` [Example 10, 4-methyl-N-[(5-phenyl-1,3,4-thiadiazol-2-yl)methyl]thiophene-2-carboxamide], the half-maximal effective concentration (EC50) was 10 nM.

Consider `O=C(NCc1nnc(-c2ccccc2)s1)c1c[nH]c(C2CC2)n1` [Example 11, 2-cyclopropyl-N-((5-phenyl-1,3,4-thiadiazol-2-yl)methyl)-1H-imidazole-4-carboxamide], for which the EC50 is 265 nM.

As to `Cc1ccc(C(=O)NCc2nnc(-c3ccccc3)s2)s1` [Example 12, 5-methyl-N-[(5-phenyl-1,3,4-thiadiazol-2-yl)methyl]thiophene-2-carboxamide], the EC50 worked out at 90 nM.

Regarding `Cc1cccn2cc(C(=O)NCc3nnc(-c4ccccc4)s3)nc12` [Example 13, 8-methyl-N-((5-phenyl-1,3,4-thiadiazol-2-yl)methyl)imidazo[1,2-a]pyridine-2-carboxamide], the EC50 was found to be 341 nM.

`Cn1ccc(C(=O)NCc2nnc(-c3ccccc3)s2)n1` [Example 14, 1-methyl-N-[(5-phenyl-1,3,4-thiadiazol-2-yl)methyl]pyrazole-3-carboxamide]: the EC50 worked out at 291 nM.

As for `Cc1ccsc1C(=O)NCc1nnc(-c2ccccc2)s1` [Example 15, 3-methyl-N-[(5-phenyl-1,3,4-thiadiazol-2-yl)methyl]thiophene-2-carboxamide], the concentration giving a half-maximal response (EC50) was 153 nM.
